Reference: the supplement of paper PMC10307832

Experiments:
Experiment in all cases: relative viability (nuclei count vs DMSO), 5 days (fraction); higher = more cells survive
Everolimus + Linsitinib = compound: CO[C@H]1C[C@@H]2CC[C@@H](C)[C@@](O)(O2)C(=O)C(=O)N2CCCC[C@H]2C(=O)O[C@H]([C@H](C)C[C@@H]2CC[C@@H](OCCO)[C@H](OC)C2)CC(=O)[C@H](C)/C=C(\C)[C@@H](O)[C@@H](OC)C(=O)[C@H](C)C[C@H](C)/C=C/C=C/C=C/1C [Everolimus] + C[C@]1(O)C[C@@H](c2nc(-c3ccc4ccc(-c5ccccc5)nc4c3)c3c(N)nccn32)C1 [Linsitinib] (partner 1 µM)
How it was run: (§1)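 Five library-drug doses in √10 steps were combined with a fixed anchor-drug dose, or a single drug was given alone, by pin tool to lung cancer cell lines in 1536-well plates the day after seeding. Nuclei were stained and counted after 5 days. Relative viability is the nuclei count in treated wells over that in vehicle wells, taken as the median of duplicate plates.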

Everolimus + Vorinostat = compound: CO[C@H]1C[C@@H]2CC[C@@H](C)[C@@](O)(O2)C(=O)C(=O)N2CCCC[C@H]2C(=O)O[C@H]([C@H](C)C[C@@H]2CC[C@@H](OCCO)[C@H](OC)C2)CC(=O)[C@H](C)/C=C(\C)[C@@H](O)[C@@H](OC)C(=O)[C@H](C)C[C@H](C)/C=C/C=C/C=C/1C [Everolimus] + O=C(CCCCCCC(=O)Nc1ccccc1)NO [Vorinostat] (partner 1 µM)
How it was run: as §1

Everolimus + Pemetrexed = compound: CO[C@H]1C[C@@H]2CC[C@@H](C)[C@@](O)(O2)C(=O)C(=O)N2CCCC[C@H]2C(=O)O[C@H]([C@H](C)C[C@@H]2CC[C@@H](OCCO)[C@H](OC)C2)CC(=O)[C@H](C)/C=C(\C)[C@@H](O)[C@@H](OC)C(=O)[C@H](C)C[C@H](C)/C=C/C=C/C=C/1C [Everolimus] + Nc1nc2[nH]cc(CCc3ccc(C(=O)N[C@@H](CCC(=O)O)C(=O)O)cc3)c2c(=O)[nH]1 [Pemetrexed] (partner 0.2 µM)
How it was run: as §1

Everolimus + Navitoclax = compound: CO[C@H]1C[C@@H]2CC[C@@H](C)[C@@](O)(O2)C(=O)C(=O)N2CCCC[C@H]2C(=O)O[C@H]([C@H](C)C[C@@H]2CC[C@@H](OCCO)[C@H](OC)C2)CC(=O)[C@H](C)/C=C(\C)[C@@H](O)[C@@H](OC)C(=O)[C@H](C)C[C@H](C)/C=C/C=C/C=C/1C [Everolimus] + CC1(C)CCC(c2ccc(Cl)cc2)=C(CN2CCN(c3ccc(C(=O)NS(=O)(=O)c4ccc(N[C@H](CCN5CCOCC5)CSc5ccccc5)c(S(=O)(=O)C(F)(F)F)c4)cc3)CC2)C1 [Navitoclax] (partner 0.5 µM)
How it was run: as §1

Cell Line	relative viability (Everolimus + Linsitinib; first compound 0.01 µM)	relative viability (Everolimus + Linsitinib; first compound 0.03162 µM)	relative viability (Everolimus + Linsitinib; first compound 0.1 µM)	relative viability (Everolimus + Linsitinib; first compound 0.3162 µM)	relative viability (Everolimus + Linsitinib; first compound 1 µM)	relative viability (Everolimus + Vorinostat; first compound 0.01 µM)	relative viability (Everolimus + Vorinostat; first compound 0.03162 µM)	relative viability (Everolimus + Vorinostat; first compound 0.1 µM)	relative viability (Everolimus + Vorinostat; first compound 0.3162 µM)	relative viability (Everolimus + Vorinostat; first compound 1 µM)	relative viability (Everolimus + Pemetrexed; first compound 0.01 µM)	relative viability (Everolimus + Pemetrexed; first compound 0.03162 µM)	relative viability (Everolimus + Pemetrexed; first compound 0.1 µM)	relative viability (Everolimus + Pemetrexed; first compound 0.3162 µM)	relative viability (Everolimus + Pemetrexed; first compound 1 µM)	relative viability (Everolimus + Navitoclax; first compound 0.01 µM)	relative viability (Everolimus + Navitoclax; first compound 0.03162 µM)	relative viability (Everolimus + Navitoclax; first compound 0.1 µM)	relative viability (Everolimus + Navitoclax; first compound 0.3162 µM)	relative viability (Everolimus + Navitoclax; first compound 1 µM)
HCC-44	0.467	0.545	0.313	0.349	0.411	1.17	1.23	1.03	1.14	1.05	0.769	0.802	0.675	0.705	0.727	0.941	0.88	0.819	0.904	0.903
HCC-78	0.482	0.319	0.272	0.28	0.293	0.401	0.372	0.416	0.367	0.307	0.902	0.929	0.873	0.914	0.93	0.853	0.421	0.424	0.589	0.455
HCC-366	0.338	0.372	0.274	0.291	0.343	0.221	0.16	0.181	0.214	0.165	0.339	0.307	0.284	0.216	0.173	0.859	0.823	0.871	0.91	0.511
HCC-827	1.01	0.977	0.979	1	0.838	0.643	0.578	0.709	0.827	0.794	0.22	0.251	0.194	0.275	0.243	1.02	1.07	0.99	1.04	0.987
IA-LM	0.296	0.306	0.243	0.267	0.282	0.815	0.83	0.425	0.342	0.352						0.314	0.317	0.395	0.389	0.302
LCLC-103H	1.04	0.905	0.864	0.831	0.747	0.747	0.755	0.734	0.712	0.617	0.43	0.453	0.472	0.45	0.438					
NCI-H358	0.421	0.533	0.544	0.388	0.347	0.431	0.434	0.388	0.417	0.47	0.173	0.162	0.162	0.158	0.153					
NCI-H522						0.788	0.784	0.589	0.726	0.731	0.735	0.79	0.521	0.548	0.732					
